Measurements taken from patent US9132098B2, “Stable nanocomposition comprising doxorubicin, process for the preparation thereof, its use and pharmaceutical compositions containing it” (BBS Nanotechnology Ltd., priority 2013, dated 2015).

System: SK-OV-3 human ovary adenocarcinoma cells
Test: Comparative efficacy study in SK-OV-3 s.c. xenograft SCID mouse model of ovary cancer
Assay type: in vivo, SCID mice
Conditions: 78th day after tumor inoculation, total dose DOX 23, NP 17, NP-PEG 23 mg/kg
Procedure: Tumor was induced in mice by implanting SK-OV-3 human ovary adenocarcinoma cells s.c. in upper region of back of SCID mice and allowing the tumors to develop to appreciable size over 40 days (30 mm3). The comparative efficacy study of six i.v. injection (day 43, 50, 57, 65, 71 and 78) of 5% glucose, doxorubicin (DOX) 3.8 mg/kg, NP […] and NP-PEG 3.8 mg/kg) was evaluated over 104 days. In this table there are the tumor volume of mice on 78th day after tumor inoculation (data represent mean±SEM of five mice per_group) and body weight of mice on 78th day after tumor inoculation (Data represent mean±STDEV of five mice per group). The table below discloses the comparative efficacy study in SK-OV-3 s.c. xenograft SCID mouse model of ovary cancer.

Animal weight (six i.v. injections, mean±STDEV of five mice): 22.54 ± 0.77 g
Compound: COc1cccc2c1C(=O)c1c(O)c3c(c(O)c1C2=O)C[C@@](O)(C(=O)CO)C[C@@H]3O[C@H]1C[C@H](N)[C@H](O)[C@H](C)O1 [DOX]
Tumor volume (mm^3) (six i.v. injections (day 43-78), mean±SEM of five mice): 294.8 ± 216 mm^3
